This note sets out measurements from paper PMC6583902 (Biochemistry, 2013).

This test relates to C. elegans Sem-5 (sex muscle five) Src-homology 3 (SH3) domain. The following applies: stated in words.

Consider Ac-VPPXVPPRRRY [proline], for which the “apparent binding constant measured by ITC” value is “only in the millimolar range”.
